Experimental data taken from the supplement of paper PMC10307832.

Experiments:
Assay in all cases: relative viability (nuclei count vs DMSO), 5 days (fraction); higher = more cells survive
[1] = compound: C[C@]1(O)C[C@@H](c2nc(-c3ccc4ccc(-c5ccccc5)nc4c3)c3c(N)nccn32)C1 [Linsitinib] + COc1cc2c(Oc3ccc(NC(=O)C4(C(=O)Nc5ccc(F)cc5)CC4)cc3F)ccnc2cc1OCCCN1CCOCC1 [Foretinib] (partner 0.25 µM)
Outline: (§1)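 Values are medians from duplicate plates. Each reflects relative viability, defined as the nuclei count of treated wells over that of vehicle wells. Lung cancer cell lines in 1536-well plates were pin-tool dosed one day after seeding with one drug alone or with a fixed anchor-drug dose plus five library-drug doses (not always all listed) in √10 steps, then fixed, stained and imaged at 4× after 5 days.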

[2] = compound: Cc1ccc(C(=O)N(CCCN)[C@@H](c2nc3cc(Cl)ccc3c(=O)n2Cc2ccccc2)C(C)C)cc1 [Ispinesib] + Nc1nc2[nH]cc(CCc3ccc(C(=O)N[C@@H](CCC(=O)O)C(=O)O)cc3)c2c(=O)[nH]1 [Pemetrexed] (partner 0.2 µM)
Outline: as §1

[3] = compound: Cc1ccc(C(=O)N(CCCN)[C@@H](c2nc3cc(Cl)ccc3c(=O)n2Cc2ccccc2)C(C)C)cc1 [Ispinesib] + C[C@]1(O)C[C@@H](c2nc(-c3ccc4ccc(-c5ccccc5)nc4c3)c3c(N)nccn32)C1 [Linsitinib] (partner 1 µM)
Outline: as §1

[4] = compound: C[C@]1(O)C[C@@H](c2nc(-c3ccc4ccc(-c5ccccc5)nc4c3)c3c(N)nccn32)C1 [Linsitinib] + CC(=O)c1c(C)c2cnc(Nc3ccc(N4CCNCC4)cn3)nc2n(C2CCCC2)c1=O [Palbociclib] (partner 0.5 µM)
Outline: as §1

Cell Line	relative viability ([1]; first compound 0.01 µM)	relative viability ([1]; first compound 0.03162 µM)	relative viability ([1]; first compound 0.1 µM)	relative viability ([1]; first compound 0.3162 µM)	relative viability ([1]; first compound 1 µM)	relative viability ([2]; first compound 0.001 µM)	relative viability ([2]; first compound 0.003162 µM)	relative viability ([2]; first compound 0.01 µM)	relative viability ([2]; first compound 0.03162 µM)	relative viability ([2]; first compound 0.1 µM)	relative viability ([3]; first compound 0.001 µM)	relative viability ([3]; first compound 0.003162 µM)	relative viability ([3]; first compound 0.01 µM)	relative viability ([3]; first compound 0.03162 µM)	relative viability ([3]; first compound 0.1 µM)	relative viability ([4]; first compound 0.01 µM)	relative viability ([4]; first compound 0.03162 µM)	relative viability ([4]; first compound 0.1 µM)	relative viability ([4]; first compound 0.3162 µM)	relative viability ([4]; first compound 1 µM)
NCI-H596	0.831	0.978	0.873	0.871	0.858	0.502	0.51	0.578	0.52	0.304	1.29	0.988	1.17	1.06	0.551					
NCI-H727	0.836	0.866	0.647	0.632	0.611							0.303	0.235	0.244	0.223	0.708	0.719	0.63	0.553	0.554
NCI-H1299	1.07	1.11	1.13	1.12	1.11						1.06	1.12	0.81	0.941	0.375					
NCI-H1563	0.865	0.984	0.98	0.98	0.903	0.849	0.859	0.743	0.771	0.661	1.29	1.19	1.27	1.1	0.844					
NCI-H1623	0.871	0.913	0.85		0.671															
NCI-H1648						0.92	0.723	0.802	0.751	0.305						0.238	0.304	0.252	0.279	0.212
NCI-H1650	1.2	0.902	1.12	0.697	1.03	0.381	0.368	0.372	0.321	0.161						0.399	0.299	0.305	0.246	0.253
NCI-H1703	0.356		0.379	0.513	0.267						0.742	0.64	0.504	0.106	0.0823					
NCI-H1792						1.05	1.15	0.903	0.448	0.135	0.45	0.52	0.492	0.25	0.392		0.712	0.527	0.599	0.375
NCI-H2170	0.994	1.05	0.974	0.773	0.963	0.357	0.266	0.256	0.205	0.158						0.386	0.4	0.381		0.412
NCI-H2342	1.06	1.05	1.06	1.01	0.959	0.772	0.813	0.924	0.751	0.468						0.677	0.524	0.521	0.531	0.54
SW 900	0.894	1.07	0.881	0.857	0.503	0.482	0.516	0.525	0.469	0.189						0.506	0.544	0.534	0.476	0.505
